Experimental data: patent US11028074B2, “CD73 inhibitors” (Eli Lilly and Company, priority 2018, dated 2021)

Tests used:
[1] = tested on: EG7 (lymphoma), MC38 (colon), AT-3 (breast) and B16F10 (melanoma) tumor cells; conditions: syngeneic mice injected subcutaneously with EG7, MC38, AT-3 and B16F10 tumor cells; cited from earlier work
human CD73 [2] = molecular target: T1, human CD73 (Homo sapiens, UniProt P21589); assay: Human CD73 Biochemical Assay; conditions: 2 μM AMP, 50 pM CD73 protein, 30 minutes at RT
T1 construct: human CD73 (amino acids 1-547); 6-His (C); made in house; host or cells: HEK293F (transient transfection)
T1 sequence (P21589 27-547): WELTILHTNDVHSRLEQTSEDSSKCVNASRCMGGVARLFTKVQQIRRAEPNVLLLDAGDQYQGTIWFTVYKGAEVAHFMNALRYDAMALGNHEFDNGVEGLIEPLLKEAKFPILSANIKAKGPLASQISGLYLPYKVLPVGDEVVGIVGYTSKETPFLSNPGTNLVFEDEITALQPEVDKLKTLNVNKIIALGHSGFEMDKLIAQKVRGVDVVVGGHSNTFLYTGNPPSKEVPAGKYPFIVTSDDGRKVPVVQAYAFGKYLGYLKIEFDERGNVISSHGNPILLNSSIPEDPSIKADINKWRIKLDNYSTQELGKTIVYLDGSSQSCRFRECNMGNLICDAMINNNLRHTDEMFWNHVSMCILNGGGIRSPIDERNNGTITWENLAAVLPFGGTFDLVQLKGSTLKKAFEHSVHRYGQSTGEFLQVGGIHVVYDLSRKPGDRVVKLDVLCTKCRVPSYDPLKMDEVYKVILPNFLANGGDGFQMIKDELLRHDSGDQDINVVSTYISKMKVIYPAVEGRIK
Method: An Agilent 300 RapidFire automated extraction system (Agilent, Santa Clara, Calif.) is used with three HPLC quaternary pumps, coupled to an Sciex 6500 triple quadrupole mass spectrometer (AB Sciex, Framingham, Mass.) with an electrospray ionization (ESI) interface source.
Solvent A, used for sample loading and washing, is 50 mM ammonium formate, pH 4.0 containing 5% (v/v) ACN. Solvent B, used for sample elution, is 0.3% formic acid+2% ammonium hydroxide in 70% ACN/30% MeOH. Samples are sequentially analyzed by aspirating 10 μL onto the collection loop under vacuum directly from multiwell plates.
Equip the triple quadrupole mass spectrometer with an electrospray ionization (ESI) source and monitor analytes using selected reaction monitoring (SRM) in positive mode (M+H)+. […] Calculate area ratio values for adenosine and adenosine monophosphate using 13C5 Adenosine and 15N5 AMP as internal standards, respectively.
The purpose of this assay is to identify and characterize inhibitors of CD73 enzyme activity. […] Adenosine- and adenosine ribose-^13C5 (internal standard) levels are determined utilizing mass spectrometry as described above. Use signal ratio (adenosine peak integration/adenosine internal standard peak integration) to quantitate each reaction. […] For screening purposes, test each compound at 50 μM in 1% DMSO.

human CD73 [3] = molecular target: T1, human CD73; assay: Human CD73 Mechanism Assay; assay type: biochemical; conditions: varying inhibitor and AMP concentrations 0.023 to 50 μM, mixed-model fit
CD73 [4] = molecular target: T2, CD73 (Homo sapiens, UniProt P21589); assay: Calu6 Human Cell Assay; assay type: cell-based; conditions: Calu6 cells, 50 μM AMP premix, 60 minutes at room temperature
T2 sequence (P21589 27-549): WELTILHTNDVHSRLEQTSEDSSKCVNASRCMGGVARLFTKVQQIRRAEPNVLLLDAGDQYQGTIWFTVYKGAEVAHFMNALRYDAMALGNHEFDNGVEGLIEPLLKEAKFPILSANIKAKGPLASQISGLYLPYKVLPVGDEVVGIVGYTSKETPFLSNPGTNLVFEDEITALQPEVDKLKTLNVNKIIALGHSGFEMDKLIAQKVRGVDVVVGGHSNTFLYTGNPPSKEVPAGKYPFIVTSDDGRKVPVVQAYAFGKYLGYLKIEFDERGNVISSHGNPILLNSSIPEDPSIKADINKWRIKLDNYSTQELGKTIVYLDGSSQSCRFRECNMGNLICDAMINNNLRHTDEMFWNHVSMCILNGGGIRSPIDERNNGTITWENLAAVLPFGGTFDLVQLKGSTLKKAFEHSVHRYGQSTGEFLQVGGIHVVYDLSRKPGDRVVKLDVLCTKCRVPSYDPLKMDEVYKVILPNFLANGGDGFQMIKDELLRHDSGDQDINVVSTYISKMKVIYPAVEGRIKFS
Method: The purpose of this assay is to test compounds against CD73 in a cell-based assay. […] Plates are incubated at room temperature for 60 minutes.

CD73 [5] = molecular target: T2, CD73; assay: LC/MS Based Assay for Measuring CD73 Activity in Human Serum; assay type: biochemical; parameters: from tissue; host or cells: normal human serum; conditions: concentrations corrected with the fraction unbound, read-out: EC50, inhibition of CD73 activity in human serum
Method: Fresh normal human blood is centrifuged at 1,500 g for 15 minutes at room temperature, and the upper fraction containing serum is collected. […] After incubation on ice for 60 min, […] (50 uM) is added to each well in the plate, and the plate is incubated at room temperature for 15 min. The plate is then placed on dry ice with addition of 200 uL/well of 17.3 TCA followed by shaking at 26 fps for 3 min with a plate-shaking machine (Qiagen). The plate is then centrifuged at 2940 g for 20 min at 4° C. […] After further centrifugation at 2940 g for 20 min at 4° C., 200 ul/well of the supernatant is used for analysis of ^13C10-^15N5-adenosine, ^13C10-^15N5-inosine and ^15N5-hypoxanthine by LC/MS as described above. For EC50 calculations, the concentrations of the CD73 inhibitor in the serum are corrected with the fraction unbound (%) derived from in silico models or experimentally.

SMILES	tumor growth [1]	IC50 (human CD73 [2])	mechanism of action (type of inhibition) (human CD73 [3])	IC50 (CD73 [4])	EC50 (CD73 [5])
Nc1ncnc2c1ncn2[C@@H]1O[C@H](COP(=O)(O)CP(=O)(O)O)[C@@H](O)[C@H]1O [α,β-methyleneadenosine 5′-diphosphate]	reduce tumor growth				
CC[C@H]1C[C@@H]1c1cc(-c2c[nH]c(=O)[nH]c2=O)nnc1C [Example 1, 5-[5-[(1S,2S)-2-Ethylcyclopropyl]-6-methyl-pyridazin-3-yl]-1H-pyrimidine-2,4-dione]		43 nM	uncompetitive inhibitor	28 nM	100 nM
